From article PMC5673308, “Two single-point mutations shift the ligand selectivity of a pheromone receptor between two closely related moth species” (eLife, 2017)
Changes are numbered by the printed parent chain.

Experiments:
Assay in all cases: two-electrode voltage clamp, Xenopus oocytes
Type in all cases: cell-based
Details in all cases: holding potential −80 mV, pH 7.5, agonist
HassOr16/HassOrco = molecular target: T1, HassOr16/HassOrco (Helicoverpa assulta, UniProt C6K7C1)
T1 construct: full-length Or16, pCS2+ vector, cRNA co-injected with Orco in Xenopus laevis oocytes; with Odorant receptor coreceptor
T1 sequence (C6K7C1 1-422): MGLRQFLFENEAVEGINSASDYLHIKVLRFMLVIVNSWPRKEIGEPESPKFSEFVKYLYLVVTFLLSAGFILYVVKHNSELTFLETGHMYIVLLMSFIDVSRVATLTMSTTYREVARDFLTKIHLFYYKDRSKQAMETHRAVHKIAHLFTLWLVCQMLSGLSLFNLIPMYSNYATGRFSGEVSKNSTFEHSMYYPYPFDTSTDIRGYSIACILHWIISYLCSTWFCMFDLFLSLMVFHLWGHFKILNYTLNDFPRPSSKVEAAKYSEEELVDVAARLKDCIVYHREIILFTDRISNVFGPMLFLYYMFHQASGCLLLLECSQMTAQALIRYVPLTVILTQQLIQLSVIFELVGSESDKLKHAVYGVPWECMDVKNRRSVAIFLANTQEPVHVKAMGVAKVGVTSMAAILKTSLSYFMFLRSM
T1 sequence (A7UGE1 1-473 partner): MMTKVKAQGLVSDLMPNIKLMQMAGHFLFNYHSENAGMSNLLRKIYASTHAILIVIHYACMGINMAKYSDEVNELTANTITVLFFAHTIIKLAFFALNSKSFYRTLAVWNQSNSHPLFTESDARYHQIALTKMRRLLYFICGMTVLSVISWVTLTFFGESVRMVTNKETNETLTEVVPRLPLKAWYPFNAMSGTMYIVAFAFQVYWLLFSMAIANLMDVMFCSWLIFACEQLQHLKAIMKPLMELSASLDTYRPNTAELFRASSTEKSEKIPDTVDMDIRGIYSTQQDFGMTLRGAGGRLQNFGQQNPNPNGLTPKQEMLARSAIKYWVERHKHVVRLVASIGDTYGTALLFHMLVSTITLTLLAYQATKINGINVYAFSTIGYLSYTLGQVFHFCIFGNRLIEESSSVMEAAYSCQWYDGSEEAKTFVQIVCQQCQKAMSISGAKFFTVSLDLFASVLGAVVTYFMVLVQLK

HarmOr14b/HarmOrco = molecular target: T2, HarmOr14b/HarmOrco (Helicoverpa armigera, UniProt R4JUU3)
T2 construct: gene OR14b; full-length Or14b, pCS2+ vector, cRNA co-injected with Orco in Xenopus laevis oocytes; with Odorant receptor coreceptor
T2 sequence (R4JUU3 1-440): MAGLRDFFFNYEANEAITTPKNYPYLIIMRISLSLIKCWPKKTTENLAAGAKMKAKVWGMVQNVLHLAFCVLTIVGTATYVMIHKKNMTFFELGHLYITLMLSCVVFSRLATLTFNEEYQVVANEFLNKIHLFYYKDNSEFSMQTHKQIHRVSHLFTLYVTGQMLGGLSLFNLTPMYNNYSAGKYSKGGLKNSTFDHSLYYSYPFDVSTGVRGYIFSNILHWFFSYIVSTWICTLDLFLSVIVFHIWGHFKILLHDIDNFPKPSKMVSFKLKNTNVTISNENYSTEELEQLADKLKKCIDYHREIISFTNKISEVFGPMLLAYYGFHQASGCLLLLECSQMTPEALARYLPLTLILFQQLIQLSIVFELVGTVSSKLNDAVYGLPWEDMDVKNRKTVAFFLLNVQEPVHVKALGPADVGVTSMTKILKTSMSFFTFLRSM
T2 sequence (A0A075TD45 1-473 partner): T1 sequence (A7UGE1 1-473 partner) with V55F

HassOr6/HassOrco = molecular target: T3, HassOr6/HassOrco (Helicoverpa assulta, UniProt R4JLZ7)
T3 construct: gene OR6; full-length Or6, pCS2+ vector, cRNA co-injected with Orco in Xenopus laevis oocytes; with Odorant receptor coreceptor
T3 sequence (R4JLZ7 1-425): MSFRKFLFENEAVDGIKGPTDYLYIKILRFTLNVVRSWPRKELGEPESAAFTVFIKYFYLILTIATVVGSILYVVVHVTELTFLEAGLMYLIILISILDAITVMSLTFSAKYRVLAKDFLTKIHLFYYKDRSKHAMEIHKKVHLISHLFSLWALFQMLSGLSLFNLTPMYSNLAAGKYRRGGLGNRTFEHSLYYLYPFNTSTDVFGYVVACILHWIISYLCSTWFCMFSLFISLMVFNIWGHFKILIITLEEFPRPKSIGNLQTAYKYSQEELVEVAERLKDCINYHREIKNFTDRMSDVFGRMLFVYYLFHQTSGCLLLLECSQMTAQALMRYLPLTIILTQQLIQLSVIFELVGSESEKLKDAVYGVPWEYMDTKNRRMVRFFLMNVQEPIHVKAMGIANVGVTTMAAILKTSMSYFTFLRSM
T3 sequence (A7UGE1 1-473 partner): T1 sequence (A7UGE1 1-473 partner)

SMILES	inward current at 10^-4 M (HassOr16/HassOrco)	inward current at 10^-4 M (HarmOr14b/HarmOrco)	inward current at 10^-4 M (HassOr6/HassOrco)
CCCC/C=C\CCCCCCCC=O [Z9-14:Ald, (Z)−9-tetradecenal]	HassOr16 is specific for Z9-14:Ald	HarmOr14b is specifically tuned to Z9-14:Ald	–
CCCCCC/C=C\CCCCCCCC=O [Z9-16:Ald, (Z)−9-hexadecenal]	–	HarmOr14b is specifically tuned to Z9-14:Ald, and also weakly responds to Z9-16:Ald	–
CCCCCC/C=C\CCCCCCCCO [Z9-16:OH, (Z)−9-hexadecenol]	–	–	HassOr6 is mainly tuned to Z9-16:OH
